We go through 25 compounds from patent US10865194B2, “Therapeutically active bicyclic-sulphonamides and pharmaceutical compositions” (FONDAZIONE ISTITUTO ITALIANO DI TECNOLOGIA, priority 2017, dated 2020).

This test concerns the target T1, human NAAA (Homo sapiens, UniProt Q02083).
T1 construct: expressed in transfected cells; host or cells: HEK-293 (stably transfected, G418 selection); enzyme-enriched lysate
T1 sequence (Q02083 126-359 limits assumed): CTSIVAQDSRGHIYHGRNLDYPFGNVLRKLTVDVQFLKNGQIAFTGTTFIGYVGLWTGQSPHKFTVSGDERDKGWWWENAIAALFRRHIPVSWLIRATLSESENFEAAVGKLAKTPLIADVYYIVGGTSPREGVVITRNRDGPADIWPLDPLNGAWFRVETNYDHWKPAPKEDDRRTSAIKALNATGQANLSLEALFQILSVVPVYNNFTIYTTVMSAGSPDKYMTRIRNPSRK
T1 sequence (Q02083 29-125 limits assumed): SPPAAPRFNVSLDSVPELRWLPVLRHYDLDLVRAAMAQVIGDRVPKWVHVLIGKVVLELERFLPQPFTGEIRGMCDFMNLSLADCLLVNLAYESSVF
Description: In vitro human NAAA fluorogenic assay. The test is classed as biochemical. To be noted: enzyme-enriched lysate of HEK-293 cells stably transfected with human NAAA; read-out: Activity h-NAAA Fluorogenic assay. The protocol:
Human recombinant proteins were obtained from HEK-293 stable overexpressing NAAA cell lines. Cells were grown in Dulbecco's modified Eagle medium (DMEM) containing 10% FBS, 1% penicillin/streptomycin, 1% glutamine and 500 μg/mL G418. To obtain membrane preparation cells were scraped off with cold phosphate-buffered saline (PBS) and collected by centrifugation (300×g, 7 min, 4° C.). Cell pellet were stored at −80° C. until protein preparation.
In Vitro Human NAAA Assay
Preparation of Enzyme-Enriched Lysate (h-NAAA).
HEK-293 cells stably transfected with the human NAAA coding sequences were used as enzyme source. Cell pellets were suspended in 20 mM Tris HCl (pH 7.4) with 0.32 M sucrose, sonicated and centrifuged at 800×g for 30 min at 4° C. Supernatants were then ultracentrifuged at 12,000×g for 30 min at 4° C. Pellets were re-suspended in PBS buffer (pH 7.4) and subjected to three freeze-thaw cycles at −80° C. The suspension was finally ultracentrifuged at 105,000×g for 1 h at 4° C., supematants were collected, protein concentration was measured and samples aliquoted and stored at −80° C. until use.
The results are summarized in Table 3 as follows, wherein +: IC50>2 μM; ++: 1.0 μM<IC50<2 μM; +++: IC50<1 μM: […]

Structures are written as SMILES.

On to `Cc1n[nH]c(C)c1S(=O)(=O)N1C2CCC1CC(Oc1ccccc1)C2` [Example 01, (1R,3s,5S)-8-[(3,5-Dimethyl-1H-pyrazol-4-yl)sulfonyl]-3-phenoxy-8-azabicyclo[3.2.1]octane], for which the IC50 is under 1000 nM. For the compound `Cc1n[nH]c(C)c1S(=O)(=O)N1C2CCC1CC(Oc1ccccc1)C2` [Example 02, (1R,3r,5S)-8-[(3,5-Dimethyl-1H-pyrazol-4-yl)sulfonyl]-3-phenoxy-8-azabicyclo[3.2.1]octane], the IC50 is under 1000 nM.

As to `Cc1cccc(OC2CC3CCC(C2)N3S(=O)(=O)c2c(C)n[nH]c2C)c1` [Example 04, (1R,3r,5S)-3-(3-Methylphenoxy)-8-[(3,5-dimethyl-1H-pyrazol-4-yl)sulfonyl]-8-azabicyclo[3.2.1]octane], the IC50 was under 1000 nM. As for `Cc1cccc(OC2CC3CCC(C2)N3S(=O)(=O)c2c(C)n[nH]c2C)c1` [Example 05, (1R,3s,5S)-3-(3-Methylphenoxy)-8-[(3,5-dimethyl-1H-pyrazol-4-yl)sulfonyl]-8-azabicyclo[3.2.1]octane], the IC50 is over 2000 nM.

As for `Cc1n[nH]c(C)c1S(=O)(=O)N1C2CCC1CC(Oc1ccc(-c3ccccc3)cc1)C2` [Example 06, (1R,3r,5S)-3-(4-phenylphenoxy)-8-[(3,5-dimethyl-1H-pyrazol-4-yl)sulfonyl]-8-azabicyclo[3.2.1]octane], the IC50 was 1000 to 2000 nM. As for `Cc1ccc(OC2CC3CCC(C2)N3S(=O)(=O)c2c(C)n[nH]c2C)cc1` [Example 07, (1R,3r,5S)-3-(4-methylphenoxy)-8-[(3,5-dimethyl-1H-pyrazol-4-yl)sulfonyl]-8-azabicyclo[3.2.1]octane], the IC50 is under 1000 nM. With `Cc1ccc(OC2CC3CCC(C2)N3S(=O)(=O)c2c(C)n[nH]c2C)cc1` [Example 10, (1R,3s,5S)-3-(4-methylphenoxy)-8-[(3,5-dimethyl-1H-pyrazol-4-yl)sulfonyl]-8-azabicyclo[3.2.1]octane] the figure was over 2000 nM; with `Cc1ccccc1OC1CC2CCC(C1)N2S(=O)(=O)c1c(C)n[nH]c1C` [Example 11, (1R,3s,5S)-3-(2-methylphenoxy)-8-[(3,5-dimethyl-1H-pyrazol-4-yl)sulfonyl]-8-azabicyclo[3.2.1]octane], over 2000 nM.

`Cc1ccccc1OC1CC2CCC(C1)N2S(=O)(=O)c1c(C)n[nH]c1C` [Example 12, (1R,3r,5S)-3-(2-methylphenoxy)-8-[(3,5-dimethyl-1H-pyrazol-4-yl)sulfonyl]-8-azabicyclo[3.2.1]octane]: the IC50 is under 1000 nM. With `Cc1n[nH]c(C)c1S(=O)(=O)N1C2CCC1CC(Oc1cnccn1)C2` [Example 13, (1R,3r,5S)-8-[(3,5-Dimethyl-1H-pyrazol-4-yl)sulfonyl]-3-pyrazin-2-yloxy-8-azabicyclo[3.2.1]octane] the figure was under 1000 nM; with `CCCCc1ccc(OC2CC3CCC(C2)N3S(=O)(=O)c2c(C)nn(C)c2C)cc1` [Example 14, (1R,3r,5S)-3-(4-Butylphenoxy)-8-(1,3,5-trimethylpyrazol-4-yl)sulfonyl-8-azabicyclo[3.2.1]octane], under 1000 nM. Consider `CCCCc1ccc(OC2CC3CCC(C2)N3S(=O)(=O)c2cc(C)sc2C)cc1` [Example 16, (1R,3r,5S)-3-(4-Butylphenoxy)-8-[(2,5-dimethyl-3-thienyl)sulfonyl]-8-azabicyclo[3.2.1]octane], for which the IC50 is over 2000 nM. The value for `CCc1ccc(OC2CC3CCC(C2)N3S(=O)(=O)c2c(C)n[nH]c2C)cc1` [Example 17, (1R,3r,5S)-3-(4-Ethylphenoxy)-8-[(3,5-dimethyl-1H-pyrazol-4-yl)sulfonyl]-8-azabicyclo[3.2.1]octane] was under 1000 nM; that for `Cc1n[nH]c(C)c1S(=O)(=O)N1C2CCC1CC(Oc1ccc(C(C)C)cc1)C2` [Example 18, (1R,3r,5S)-3-(4-Isopropylphenoxy)-8-[(3,5-dimethyl-1H-pyrazol-4-yl)sulfonyl]-8-azabicyclo[3.2.1]octane] was under 1000 nM; that for `CCCCc1ccc(OC2CC3CCC(C2)N3S(=O)(=O)c2c(C(C)C)n[nH]c2C)cc1` [Example 20, (1R,3r,5S)-3-(4-Butylphenoxy)-8-[(3-isopropyl-5-methyl-1H-pyrazol-4-yl)sulfonyl]-8-azabicyclo[3.2.1]octane] was under 1000 nM.

Turning to `Cc1ccc(OC2CC3CCC(C2)N3S(=O)(=O)c2c(C)n[nH]c2C)c(F)c1` [Example 21, (1R,3r,5S)-3-(2-Fluoro-4-methylphenoxy)-8-[(3,5-dimethyl-1H-pyrazol-4-yl)sulfonyl]-8-azabicyclo[3.2.1]octane], the IC50 was under 1000 nM.

Turning to `Cc1n[nH]c(C)c1S(=O)(=O)N1C2CCC1CC(Oc1ccc3ccccc3n1)C2` [Example 22, (1R,3r,5S)-8-[(3,5-Dimethyl-1H-pyrazol-4-yl)sulfonyl]-3-(2-quinolyloxy)-8-azabicyclo[3.2.1]octane], the IC50 is over 2000 nM. As to `Cc1n[nH]c(C)c1S(=O)(=O)N1C2CCC1CC(Oc1nc3ccccc3o1)C2` [Example 23, (1R,3r,5S)-8-[(3,5-Dimethyl-1H-pyrazol-4-yl)sulfonyl]-3-(2-benzoxazoloxy)-8-azabicyclo[3.2.1]octane], the IC50 is under 1000 nM.

`COc1ccc(O[C@H]2C[C@H]3CC[C@@H](C2)N3S(=O)(=O)c2c(C)n[nH]c2C)cc1` [Example 24, (1R,3r,5S)-3-(4-Methoxyphenoxy)-8-[(3,5-dimethyl-1H-pyrazol-4-yl)sulfonyl]-8-azabicyclo[3.2.1]octane]: the IC50 is under 1000 nM. The value for `Cc1n[nH]c(C)c1S(=O)(=O)N1C2CCC1CC(Oc1ccccn1)C2` [Example 25, (1R,3r,5S)-8-[(3,5-Dimethyl-1H-pyrazol-4-yl)sulfonyl]-3-(2-pyridiloxy)-8-azabicyclo[3.2.1]octane] was under 1000 nM; that for `CCCOc1ccc(OC2CC3CCC(C2)N3S(=O)(=O)c2c(C)n[nH]c2C)cc1` [Example 26, (1R,3r,5S)-3-(4-Propoxyphenoxy)-8-[(3,5-dimethyl-1H-pyrazol-4-yl)sulfonyl]-8-azabicyclo[3.2.1]octane] was under 1000 nM; that for `Cc1ccc(OC2CC3CCC(C2)N3S(=O)(=O)c2c(C)n[nH]c2C)nc1` [Example 27, (1R,3r,5S)-8-[(3,5-Dimethyl-1H-pyrazol-4-yl)sulfonyl]-3-[(5-methyl-2-pyridil)oxy]-8-azabicyclo[3.2.1]octane] was under 1000 nM. With `Cc1n[nH]c(C)c1S(=O)(=O)N1C2CCC1CC(Oc1nc3c(C)cccc3o1)C2` [Example 28, (1R,3r,5S)-8-[(3,5-Dimethyl-1H-pyrazol-4-yl)sulfonyl]-3-(2-(4-methyl)-benzoxazoloxy)-8-azabicyclo[3.2.1]octane] the figure was over 2000 nM; with `Cc1n[nH]c(C)c1S(=O)(=O)N1C2CCC1CC(Oc1ccc(C(F)(F)F)cc1)C2` [Example 29, (1R,3r,5S)-3-(4-Trifluoromethyl-phenoxy)-8-[(3,5-dimethyl-1H-pyrazol-4-yl)sulfonyl]-8-azabicyclo[3.2.1]octane], under 1000 nM. With `Cc1n[nH]c(C)c1S(=O)(=O)N1C2CCC1CC(Oc1ccc(C=O)cc1)C2` [Example 30, (1R,3r,5S)-3-(4-Formyl-phenoxy)-8-[(3,5-dimethyl-1H-pyrazol-4-yl)sulfonyl]-8-azabicyclo[3.2.1]octane] the figure was under 1000 nM.
